Test results taken from article PMC9151520 (Archives of Toxicology, 2022).
Where “and” joins values, the source holds several entries; their conditions need not be identical. Equal values may be shown once. Read-outs that look alike come from different tables or passages of the source.

Key:
[1] = tested on: p53 signaling (p53RE-bla HCT-116 cells); assay: cells; format: cell-based
[2] = tested on: p53 signaling (p53RE-bla HCT-116 cells); assay: cells; format: cell-based; remark: listed apart in the source
[3] = tested on: p53 signaling (p53RE-bla HCT-116 cells); assay: cells; format: cell-based; settings: Homo sapiens; for EC50: HCT-116; for Emax: HCT-116, read-out: efficacy
[4] = tested on: p53 signaling (p53RE-bla HCT-116 cells)
[5] = tested on: p53 signaling (p53RE-bla HCT-116 cells); remark: listed apart in the source
[6] = rat
[7] = tested on: p53 signaling (p53RE-bla HCT-116 cells); assay: cells; settings: Homo sapiens
[8] = tested on: p53 signaling (p53RE-bla HCT-116 cells); assay: cells; settings: Homo sapiens; remark: listed apart in the source
in vitro = settings: male, Sprague Dawley, rat, microsomes, pH 7.4
[9] = read-out: p53 activation EC50, RLM
[10] = HCT-116, read-out: p53 activation EC50, RLM
[11] = HCT-116, read-out: p53 activation EC50, HLM
[12] = HCT-116, read-out: p53 activation efficacy, primary screening

Row | SMILES | p53 activation EC50, No MS [1] | p53 activation Efficacy, No MS [1] | EC50 ([2]; Homo sapiens, HCT-116, 0.5 h) [nM] | EC50 [3] [µM] | EC50 [4, 9] [nM] | p53 activation EC50, HLM [5] | Viability EC50, HLM (p53RE-bla HCT-116 cells) | Viability EC50, No MS (p53RE-bla HCT-116 cells) | Viability EC50, RLM (p53RE-bla HCT-116 cells) | Viability Efficacy, HLM (p53RE-bla HCT-116 cells) | Viability Efficacy, No MS (p53RE-bla HCT-116 cells) | Viability Efficacy, RLM (p53RE-bla HCT-116 cells) | Depletion after 16 h of incubation with cells [6] [%] | EC50 ([7]; HCT-116) [µM] | Emax ([7]; HCT-116, read-out: efficacy) [%] | EC50 [7, 10] [µM] | EC50 [8, 11] [nM] | half-life (in vitro) [min] | EC50 [2] | Emax [3] [%] | other results
1 | CCOP(=O)(OCC)OC(=CCl)c1ccc(Cl)cc1Cl [Chlorfenvinphos] | inactive | inactive | 20 | 2.54 | 2080 | inactive | inactive | inactive | inactive | inactive | inactive | inactive | 55.04 ± 4.69 | 6.36 | 66.8 | 3.8 | 3050 | 28.6 ± 1.85 | – | – | –
2 | CCOP(=S)(OCC)Oc1cc(-c2ccccc2)on1 [Isoxathion] | inactive | inactive | 27500 | 9.77 | – | inactive | inactive | inactive | inactive | inactive | inactive | inactive | 94.65 ± 0.45 | 8.62 | 46 | – | 4450 | 2.77 ± 0.25 | – | – | –
3 | CCN(CC)C(=O)SCc1ccc(Cl)cc1 [Thiobencarb] | – | – | 1680 | 1.84 | – | – | – | – | – | – | – | – | 98.6 ± 0.04 | 5.52 | 71.8 | – | – | 1.48 ± 0.54 | – | – | p53 activation EC50 [1]: inactive; p53 activation efficacy [1]: inactive; p53 activation efficacy [4]: 51.3593; EC50 ([4]; read-out: p53 activation EC50): 1630 nM; p53 activation EC50 [5]: inactive; Viability EC50 (p53RE-bla HCT-116 cells): inactive; Viability efficacy (p53RE-bla HCT-116 cells): inactive
4 | CCOC(=O)c1cn2nc(OP(=S)(OCC)OCC)cc2nc1C [Pyrazophos] | inactive | inactive | 41000 | 0.79 | 877 | inactive | inactive | inactive | inactive | inactive | inactive | inactive | 88.65 ± 0.14 | 0.7 | 32.7 | 0.765 | 3670 | 2.29 ± 0.71 | – | – | –
5 | CCOP(=S)(OCC)SCCSCC [Disulfoton] | inactive | inactive | – | 8.47 | 3970 | inactive | inactive | inactive | inactive | inactive | inactive | inactive | 93.89 ± 4.12 | 9.13 | 43.3 | 7.78 | 5070 | > 120 | Inactive | 43.6 | activity outcome in p53-bla assay [4]: induce p53 signaling
6 | Cc1ccccc1OP(=O)(Oc1ccccc1C)Oc1ccccc1C [Tri-o-cresyl phosphate] | inactive | inactive | 15800 | 3.14 | – | inactive | inactive | inactive | inactive | inactive | inactive | inactive | 93.36 ± 0.84 | 5.32 | 59.6 | – | 1120 | 1.17 ± 0.08 | – | – | –
7 | COP(=S)(OC)Oc1ccc(S(=O)(=O)N(C)C)cc1 [Famphur] | inactive | inactive | 490 | 3.1 | 3100 | inactive | inactive | inactive | inactive | inactive | inactive | inactive | 87.7 ± 3.02 | 2.46 | 73.6 | 3.12 | 2020 | 10.8 ± 1.96 | – | – | –
8 | CCOP(=S)(OCC)Oc1ccc2c(C)c(Cl)c(=O)oc2c1 [Coumaphos] | inactive | inactive | – | 7.03 | – | inactive | inactive | inactive | inactive | inactive | inactive | inactive | 99.03 ± 0.34 | 5.95 | – | – | 891 | 0.88 ± 0.12 | Inactive | 68.7 | activity outcome in p53-bla assay [4]: induce p53 signaling
9 | CCNP(=S)(OC)O/C(C)=C/C(=O)OC(C)C (stereo not drawn) [Propetamphos] | – | – | 2000 | 2.59 | – | – | – | – | – | – | – | – | 91.32 ± 1.7 | 3.05 | 88.6 | – | – | > 120 | – | – | p53 activation EC50 [1]: inactive; p53 activation efficacy [1]: inactive; p53 activation efficacy [4]: 78.66 and 99.2667; p53 activation EC50 [5]: inactive; Viability EC50 (p53RE-bla HCT-116 cells): inactive; Viability efficacy (p53RE-bla HCT-116 cells): inactive; EC50 ([8]; HCT-116, read-out: p53 activation EC50): 731 nM; Emax ([8]; HCT-116, read-out: p53 activation efficacy): 39.9%
10 | CCOP(=S)(Oc1cnc(C(C)(C)C)nc1)OC(C)C (stereo not drawn) [Tebupirimfos] | – | – | 2170 | 1.32 | – | – | – | – | – | – | – | – | 94.85 ± 0.13 | 1.23 | 43.4 | – | – | 3.59 ± 0.08 | – | – | p53 activation EC50 [1]: inactive; p53 activation efficacy [1]: inactive; p53 activation efficacy [4]: 42.005; EC50 ([4]; read-out: p53 activation EC50): 1630 nM; p53 activation EC50 [5]: inactive; Viability EC50 (p53RE-bla HCT-116 cells): inactive; Viability efficacy (p53RE-bla HCT-116 cells): inactive
11 | CCOP(=S)(OCC)Oc1nc(Cl)c(Cl)cc1Cl [Chlorpyrifos] | inactive | inactive | – | 3.75 | 2800 | inactive | inactive | inactive | inactive | inactive | inactive | inactive | 92.74 ± 1.38 | 3.47 | 50.6 | 2.92 | 1780 | 1.11 ± 0.07 | Inactive | 45.2 | activity outcome in p53-bla assay [1]: inactive; activity outcome in p53-bla assay [4]: activator of p53 signaling
12 | Cc1cc(=O)oc2cc(O)ccc12 [4-Methylumbelliferone] | – | – | – | 24.2 | – | – | – | – | – | – | – | – | 46.53 ± 5.89 | 25.2 | 99.5 | – | – | 19.1 | Inactive | 114 | EC50, p53 activation, primary screening [1]: inactive; Efficacy, p53 activation, primary screening [1]: inactive; EC50 ([1]; Homo sapiens, HCT-116, read-out: EC50, p53 activation, cherry pick confirmation): 18.2 µM; Emax ([1]; Homo sapiens, HCT-116, read-out: Efficacy, p53 activation, cherry pick confirmation): 30%; EC50, p53 activation, cherry pick confirmation [5]: inactive; Efficacy, p53 activation, cherry pick confirmation [5]: inactive; EC50, viability, cherry pick confirmation (p53RE-bla HCT-116 cells): inactive; EC50, viability, primary screening (p53RE-bla HCT-116 cells): inactive; Efficacy, viability, cherry pick confirmation (p53RE-bla HCT-116 cells): inactive; Efficacy, viability, primary screening (p53RE-bla HCT-116 cells): inactive; EC50 ([7]; HCT-116, read-out: EC50, p53 activation, cherry pick confirmation): 25.9 µM; Emax ([7]; HCT-116, read-out: Efficacy, p53 activation, cherry pick confirmation): 89.9%
13 | CCOP(=S)(OCC)SCSC(C)(C)C [Terbufos] | – | – | – | 1.12 | – | – | – | – | – | – | – | – | 98.65 ± 1.08 | 2.81 | 62.7 | – | – | 1.12 ± 0.2 | Inactive | 53.9 | p53 activation EC50, cherry pick confirmation [1]: inactive; p53 activation EC50, primary screening [1]: inactive; p53 activation efficacy, cherry pick confirmation [1]: inactive; p53 activation efficacy, primary screening [1]: inactive; activity outcome in p53-bla assay [4]: induce p53 signaling; p53 activation EC50, cherry pick confirmation [5]: inactive; p53 activation efficacy, cherry pick confirmation [5]: inactive; Viability EC50, cherry pick confirmation (p53RE-bla HCT-116 cells): inactive; Viability EC50, primary screening (p53RE-bla HCT-116 cells): inactive; Viability efficacy, cherry pick confirmation (p53RE-bla HCT-116 cells): inactive; Viability efficacy, primary screening (p53RE-bla HCT-116 cells): inactive; EC50 ([7]; HCT-116, read-out: p53 activation EC50, cherry pick confirmation): 1.32 µM; Emax ([7]; HCT-116, read-out: p53 activation efficacy, cherry pick confirmation): 54.3%; Emax [7, 12]: 37.5%; Emax [8, 12]: 37.6%
